From US20260022142A1, “MACROCYCLIC IMMUNOMODULATORS” (Bristol-Myers Squibb Company, priority 2022, published 2026) come the findings set out here.

Molecules are shown by their SMILES. Bridge positions count the residues as written; N and C are the ends. Square brackets hold non-standard residues; d marks the D form. Peptide text beside a SMILES is read from it. * marks the point of attachment. ξ: configuration not given here. Phe(3,4-(OMe)2) = COc1ccc(C[C@H](N)C(=O)O)cc1OC; Phe(3-CF3) = N[C@@H](Cc1cccc(C(F)(F)F)c1)C(=O)O; Phe(4-CONH2) = NC(=O)c1ccc(C[C@H](N)C(=O)O)cc1; Phe(4-COOH) = N[C@@H](Cc1ccc(C(=O)O)cc1)C(=O)O; Bip = N[C@@H](Cc1ccc(-c2ccccc2)cc1)C(=O)O; NH(CH2)14COOH = O=C(O)CCCCCCCCCCCCCCN*; Phe(3-Me) = Cc1cccc(C[C@H](N)C(=O)O)c1; NH(CH2)12COOH = O=C(O)CCCCCCCCCCCCN*; Val(3-OH) = CC(C)(O)[C@H](N)C(=O)O; Cha = N[C@@H](CC1CCCCC1)C(=O)O; Thr(3ξ) = CC(O)[C@H](N)C(=O)O; PEG4 = NCCOCCOCCOCCOCCC(=O)O; Tle = CC(C)(C)[C@H](N)C(=O)O; 12Ado = NCCCCCCCCCCCC(=O)O; Carboxymethyl = O=C(O)C*; Nle = CCCC[C@H](N)C(=O)O; Orn = NCCC[C@H](N)C(=O)O; Aun = NCCCCCCCCCCC(=O)O; Dab = NCC[C@H](N)C(=O)O; Nva = CCC[C@H](N)C(=O)O; Dap = NC[C@H](N)C(=O)O; AEEA = NCCOCCOCC(=O)O

One may read the IC50 as the midpoint of a concentration-inhibition curve.

T1 sequence (Q15116 25-288): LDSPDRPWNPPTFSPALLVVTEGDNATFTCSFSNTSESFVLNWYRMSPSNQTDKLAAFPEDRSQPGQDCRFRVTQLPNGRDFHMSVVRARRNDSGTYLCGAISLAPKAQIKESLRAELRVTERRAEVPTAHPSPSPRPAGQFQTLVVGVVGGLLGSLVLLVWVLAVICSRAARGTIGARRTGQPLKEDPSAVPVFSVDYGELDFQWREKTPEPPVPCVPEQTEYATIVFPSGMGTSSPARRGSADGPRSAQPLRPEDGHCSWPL

This assay concerns the target T1, PD-1/PD-L1 interaction (PE-labeled human PD-L1-Ig binding to Jurkat cell line over-expressing human PD-1) (Homo sapiens, UniProt Q15116).
T1 construct: expressed in transfected cells; host or cells: Jurkat
Description: Jurkat-PD-1 Cell Binding High-Content Screening Assay (CBA). Format: cell-based. The note with it: Jurkat cell line over-expressing human PD-1; PE-labeled PD-L1-Ig 20 nM final; read-out: Jurkat hPD1-PDL1 IC50. In short, it runs like this: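 Binding of fluorescent PD-L1-Ig (phycoerythrin on Ig tag, 20 nM final, 1 h) measured by high-content imaging of fixed, Hoechst-counterstained Jurkat-hPD-1 cells. Compound added 2 h at 37° C beforehand, in DMEM with 10% fetal calf serum.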
Turning to `CC(C)C[C@H]1NC(=O)[C@H](CCCN)NC(=O)[C@H](C(C)C)NC(=O)[C@H](Cc2ccc(-c3ccccc3)cc2)NC(=O)[C@H](C(C)C)NC(=O)[C@H](Cc2c[nH]c3ccccc23)NC(=O)[C@H](CC(=O)O)NC(=O)[C@H](Cc2ccc(OCC(=O)O)cc2)NC(=O)[C@H](Cc2ccc(OCC(=O)O)cc2)NC(=O)CSC[C@@H](C(=O)NCC(=O)NCCOCCOCC(=O)N[C@@H](CCCN)C(=O)NCCCCCCCCCCC(=O)O)NC(=O)[C@H](CCCN)NC(=O)[C@H](C(C)C)NC(=O)[C@H](CC2CCCCC2)NC(=O)[C@H](CCN)NC1=O` [Compound 3229] ({CH2CO}-Y(Carboxymethyl)Y(Carboxymethyl)DWV[Bip]V[Orn][dL][Dab][Cha]V[Orn]CG[AEEA][Orn][Aun]-OH; thioether N-14), the IC50 was determined as 0.0069 µM. The same measure for `CC(C)C[C@H]1NC(=O)[C@H](CCCN)NC(=O)[C@H](C(C)C)NC(=O)[C@H](Cc2ccc(-c3ccccc3)cc2)NC(=O)[C@H](C(C)C)NC(=O)[C@H](Cc2c[nH]c3ccccc23)NC(=O)[C@H](CC(=O)O)NC(=O)[C@H](Cc2ccc(C(=O)O)cc2)NC(=O)[C@H](Cc2ccc(OCC(=O)O)cc2)NC(=O)CSC[C@@H](C(=O)NCC(=O)NCCOCCOCC(=O)N[C@@H](CCCN)C(=O)NCCCCCCCCCCC(=O)O)NC(=O)[C@H](CCCN)NC(=O)[C@H](C(C)C)NC(=O)[C@H](CC2CCCCC2)NC(=O)[C@H](CC(N)=O)NC1=O` [Compound 3206] ({CH2CO}-Y(Carboxymethyl)[Phe(4-COOH)]DWV[Bip]V[Orn][dL]N[Cha]V[Orn]CG[AEEA][Orn][Aun]-OH; thioether N-14): 0.0245 µM; for `Cc1cccc(C[C@@H]2NC(=O)[C@H](CC(=O)O)NC(=O)[C@H](Cc3ccc(OCC(=O)O)cc3)NC(=O)[C@H](CN)NC(=O)CSC[C@@H](C(=O)N[C@@H](CCN)C(=O)NCCCCCCCCCCC(=O)O)NC(=O)[C@@H](CCC(N)=O)NC(=O)[C@H](C(C)C)NC(=O)[C@H](CC3CCCCC3)NC(=O)[C@H](CCN)NC(=O)[C@@H](CC(C)C)NC(=O)[C@H](CCCN)NC(=O)[C@H](Cc3ccc(O)cc3)NC(=O)[C@H](Cc3ccc(-c4ccccc4)cc3)NC(=O)[C@H](C(C)C)NC2=O)c1` [Compound 2721] ({CH2CO}-[Dap]Y(Carboxymethyl)D[Phe(3-Me)]V[Bip]Y[Orn][dL][Dab][Cha]V[dQ]C[Dab][Aun]-OH; thioether N-14): 0.0224 µM; for `CC(C)C[C@H]1NC(=O)[C@H](CCCN)NC(=O)[C@H](CCC(=O)O)NC(=O)[C@H](Cc2ccc(-c3ccccc3)cc2)NC(=O)[C@H](C(C)C)NC(=O)[C@H](Cc2c[nH]c3ccccc23)NC(=O)[C@H](CC(=O)O)NC(=O)[C@H](Cc2ccc(C(=O)O)cc2)NC(=O)[C@H](Cc2ccc(OCC(=O)O)cc2)NC(=O)CSC[C@@H](C(=O)N[C@H](CO)C(=O)NCCOCCOCC(=O)N[C@@H](CCCN)C(=O)NCCCCCCCCCCCC(=O)O)NC(=O)[C@H](CO)NC(=O)[C@H](C(C)C)NC(=O)[C@H](CC2CCCCC2)NC(=O)[C@H](CCN)NC1=O` [Compound 3063] ({CH2CO}-Y(Carboxymethyl)[Phe(4-COOH)]DWV[Bip]E[Orn][dL][Dab][Cha]VSC[dS][AEEA][Orn][12Ado]-OH; thioether N-14): 0.0134 µM. The same measure for `CCC[C@@H]1NC(=O)CSC[C@@H](C(=O)N[C@@H](CCN)C(=O)NCCOCCOCCOCCOCCC(=O)NCCCCCCCCCCCCC(=O)O)NC(=O)[C@H](Cc2c[nH]cn2)NC(=O)[C@H](C(C)(C)O)NC(=O)[C@H](CC2CCCCC2)NC(=O)[C@H](CCN)NC(=O)[C@@H](CC(C)C)NC(=O)[C@H](CCCN)NC(=O)[C@H](Cc2ccc(C(=O)O)cc2)NC(=O)[C@H](Cc2ccc(-c3ccccc3)cc2)NC(=O)[C@H](Cc2ccc(C(=O)O)cc2)NC(=O)[C@H](Cc2cccc(C(F)(F)F)c2)NC(=O)[C@H](CC(=O)O)NC(=O)[C@H](Cc2ccc(OCC(=O)O)cc2)NC1=O` [Compound 2950] ({CH2CO}-[Nva]Y(Carboxymethyl)D[Phe(3-CF3)][Phe(4-COOH)][Bip][Phe(4-COOH)][Orn][dL][Dab][Cha][Val(3-OH)]HC[Dab][PEG4]-{NH(CH2)12COOH}; thioether N-14): 0.0524 µM; for `CCCC[C@@H]1NC(=O)CSC[C@@H](C(=O)N[C@@H](CCN)C(=O)NCCOCCOCCOCCOCCC(=O)NCCCCCCCCCCCCCCC(=O)O)NC(=O)[C@H](CO)NC(=O)[C@H](C(C)(C)O)NC(=O)[C@H](CC2CCCCC2)NC(=O)[C@H](CCN)NC(=O)[C@@H](CC(C)C)NC(=O)[C@H](CCCN)NC(=O)[C@H](Cc2ccc(C(=O)O)cc2)NC(=O)[C@H](Cc2ccc(-c3ccccc3)cc2)NC(=O)[C@H](Cc2ccc(C(=O)O)cc2)NC(=O)[C@H](Cc2cccc(C(F)(F)F)c2)NC(=O)[C@H](CC(=O)O)NC(=O)[C@H](Cc2ccc(OCC(=O)O)cc2)NC1=O` [Compound 2912] ({CH2CO}-[Nle]Y(Carboxymethyl)D[Phe(3-CF3)][Phe(4-COOH)][Bip][Phe(4-COOH)][Orn][dL][Dab][Cha][Val(3-OH)]SC[Dab][PEG4]-{NH(CH2)14COOH}; thioether N-14): 0.24 µM; for `CC(C)C[C@H]1NC(=O)[C@H](Cc2cnc[nH]2)NC(=O)[C@H](Cc2ccc(OCC(=O)O)cc2)NC(=O)[C@H](Cc2ccc(-c3ccccc3)cc2)NC(=O)[C@H](Cc2ccc(C(=O)O)cc2)NC(=O)[C@H](Cc2cccc(C(F)(F)F)c2)NC(=O)[C@H](CC(=O)O)NC(=O)[C@H](Cc2ccc(OCC(=O)O)cc2)NC(=O)[C@H](C(C)O)NC(=O)CSC[C@@H](C(=O)N[C@@H](CCN)C(=O)NCCCCCCCCCCCCCCC(=O)O)NC(=O)[C@H](C(C)O)NC(=O)[C@H](C(C)(C)O)NC(=O)[C@H](CC2CCCCC2)NC(=O)[C@H](CCN)NC1=O` (stereo partly drawn) [Compound 3861] ({CH2CO}-[Thr(3ξ)]Y(Carboxymethyl)D[Phe(3-CF3)][Phe(4-COOH)][Bip]Y(Carboxymethyl)H[dL][Dab][Cha][Val(3-OH)][Thr(3ξ)]C[Dab]-{NH(CH2)14COOH}; thioether N-14): 0.348 µM. The same measure for `Cc1cccc(C[C@@H]2NC(=O)[C@H](CC(=O)O)NC(=O)[C@H](Cc3ccc(OCC(=O)O)cc3)NC(=O)[C@H](CN)NC(=O)CSC[C@@H](C(=O)N[C@@H](CCN)C(=O)NCCOCCOCC(=O)NCCCCCCCCCCC(=O)O)NC(=O)[C@H](CCCN)NC(=O)[C@H](C(C)C)NC(=O)[C@H](CC3CCCCC3)NC(=O)[C@H](CCN)NC(=O)[C@@H](CC(C)C)NC(=O)[C@H](CCCN)NC(=O)[C@H](Cc3ccc(C(N)=O)cc3)NC(=O)[C@H](Cc3ccc(-c4ccccc4)cc3)NC(=O)[C@H](Cc3ccc(O)cc3)NC2=O)c1` [Compound 2045] ({CH2CO}-[Dap]Y(Carboxymethyl)D[Phe(3-Me)]Y[Bip][Phe(4-CONH2)][Orn][dL][Dab][Cha]V[Orn]C[Dab][AEEA][Aun]-OH; thioether N-14): 0.0072 µM; for `Cc1cccc(C[C@@H]2NC(=O)[C@H](CC(=O)O)NC(=O)[C@H](Cc3ccc(OCC(=O)O)cc3)NC(=O)[C@H](CN)NC(=O)CSC[C@@H](C(=O)N[C@@H](CCCCN)C(=O)NCCCCCCCCCCC(=O)O)NC(=O)[C@H]([C@@H](C)O)NC(=O)[C@H](C(C)C)NC(=O)[C@H](CC3CCCCC3)NC(=O)[C@H](Cc3cnc[nH]3)NC(=O)[C@@H](CC(C)C)NC(=O)[C@H](CCCN)NC(=O)[C@H](C(C)C)NC(=O)[C@H](Cc3ccc(-c4ccccc4)cc3)NC(=O)[C@H](C(C)C)NC2=O)c1` [Compound 1110] ({CH2CO}-[Dap]Y(Carboxymethyl)D[Phe(3-Me)]V[Bip]V[Orn][dL]H[Cha]VTCK[Aun]-OH; thioether N-14): 0.033 µM. With `Cc1cccc(C[C@@H]2NC(=O)[C@H](CC(=O)O)NC(=O)[C@H](Cc3ccc(OCC(=O)O)cc3)NC(=O)[C@H](CN)NC(=O)CSC[C@@H](C(=O)N[C@H](CC(N)=O)C(=O)NCCCCCCCCCCC(=O)O)NC(=O)[C@H](CO)NC(=O)[C@H](C(C)O)NC(=O)[C@H](CC3CCCCC3)NC(=O)[C@H](CCN)NC(=O)[C@@H](CC(C)C)NC(=O)[C@H](CCCN)NC(=O)[C@H](Cc3ccc(OCC(=O)O)cc3)NC(=O)[C@H](Cc3ccc(-c4ccccc4)cc3)NC(=O)[C@H](Cc3ccc(OCC(=O)O)cc3)NC2=O)c1` (stereo partly drawn) [Compound 3659] ({CH2CO}-[Dap]Y(Carboxymethyl)D[Phe(3-Me)]Y(Carboxymethyl)[Bip]Y(Carboxymethyl)[Orn][dL][Dab][Cha][Thr(3ξ)]SC[dN][Aun]-OH; thioether N-14), the IC50 came out at 0.0476 µM.

In the case of `Cc1cccc(C[C@@H]2NC(=O)[C@H](CC(=O)O)NC(=O)[C@H](Cc3ccc(OCC(=O)O)cc3)NC(=O)[C@H](C(C)O)NC(=O)CSC[C@@H](C(=O)N[C@H](CC(N)=O)C(=O)NCCCCCCCCCCC(=O)O)NC(=O)[C@H](C(C)(C)C)NC(=O)[C@H](CO)NC(=O)[C@H](CC3CCCCC3)NC(=O)[C@H](CCN)NC(=O)[C@@H](CC(C)C)NC(=O)[C@H](CCCN)NC(=O)[C@H](Cc3ccc(OCC(=O)O)cc3)NC(=O)[C@H](Cc3ccc(-c4ccccc4)cc3)NC(=O)[C@H](Cc3ccc(O)cc3)NC2=O)c1` (stereo partly drawn) [Compound 3520] ({CH2CO}-[Thr(3ξ)]Y(Carboxymethyl)D[Phe(3-Me)]Y[Bip]Y(Carboxymethyl)[Orn][dL][Dab][Cha]S[Tle]C[dN][Aun]-OH; thioether N-14), the IC50 was 0.608 µM. The figure for `COc1ccc(C[C@@H]2NC(=O)[C@H](CC(=O)O)NC(=O)[C@H](Cc3ccc(OCC(=O)O)cc3)NC(=O)[C@H](CN)NC(=O)CSC[C@@H](C(=O)N[C@@H](CCN)C(=O)NCCOCCOCC(=O)NCCCCCCCCCCC(=O)O)NC(=O)[C@H](CCCN)NC(=O)[C@H](C(C)C)NC(=O)[C@H](CC3CCCCC3)NC(=O)[C@H](CCN)NC(=O)[C@@H](CC(C)C)NC(=O)[C@H](CCCN)NC(=O)[C@H](Cc3ccc(O)cc3)NC(=O)[C@H](Cc3ccc(-c4ccccc4)cc3)NC(=O)[C@H](C(C)C)NC2=O)cc1OC` [Compound 1283] ({CH2CO}-[Dap]Y(Carboxymethyl)D[Phe(3,4-(OMe)2)]V[Bip]Y[Orn][dL][Dab][Cha]V[Orn]C[Dab][AEEA][Aun]-OH; thioether N-14) is 0.731 µM.
